# Key:
# [1] = tested on: middle cerebral artery ischemia-reperfusion model; assay: Cerebroprotective action in middle cerebral artery ischemia-reperfusion model; type: in vivo, rat; conditions: for rotor rod test, ratio to before occlusion (%), Ave: reperfusion vs before occlusion
# Procedure: CD(SD)IGS male rats (Japan Charles river Kabushiki kaisha, Hino farm, room No. 22, specific product) (8 rats per one group) having body weight 270 to 350 g were anesthetized by 2% isoflurane (mixed bas comprising of 70% N2O (laughter gas) and 30% O2) to immobilize, and then the rats were put on warming plate to keep the rectal and brain temperature 37 to 38° C. After that, to observe the stability in the examination, cannula which was made by polyethylene (PE-50, Becton Dickinson) was inserted and left in caudal artery of said animal, and this made blood drawing and blood pressure determining to monitor the biochemical parameter such as blood sugar level, hematocrit, CO2 concentration, oxygen partial pressure, pH, blood pressure and etc. In addition, cerebral blood flow in cortex was determined by laser doppler fluorometry (Neuroscience.inc: OMEGA FLOW (FLO-C1)), putting the detection site directly on cranium on the point left 4 mm from bregma. Left neck of such animal was incised, and from internal and external carotid fork of common carotid artery to upstream of internal carotid, nylon surgical thread (length 16 mm, diameter 0.2 to 0.3 mm, with silicon coating on its tip 3 mm) was passed and left, middle cerebral artery was obstructed for 2 hours. After that, the thread was removed to release the middle cerebral artery, and blood was reperfused for 21 hours. To each animals, 3.0 mg/kg of edaravone (control) and 5.58 mg/kg of TM-2002 were respectively administered twice by cannula which is left in caudal artery 5 minutes and 5 hours after middle cerebral artery occlusion. After said operation, the brain was removed from said animal, and after preparing 7 brain slices with 2 mm thickness, to TTC stain (0.8 g of 2,3,5-triphenyltetrazolium chloride (Sigma) dissolved in 40 ml of saline) were soaked at 37° C. for 15 minutes to stain, the area of infarction and fixed by 10% neutral formalin liquid to prepare specimen. Such specimens were created the image by CCD camera respectively, and analysed according to method of Swanson et al. (J Cereb Blood Flow Metab 10:290-293; 1994). […] Furthermore, function recovering was estimated before and after the operation by rotor rod test that estimates how much they can walk on rotating rotor.
# normal rat (WKY rat) = assay: Vitamin B6 deficiency in normal rat; type: in vivo; conditions: 13 mg/kg/rat/once twice daily by sonde, 20 weeks
# Procedure: TM-2002 was administered to normal rat (WKY rat: Japan SLC) to examine the presence of vitamin B6 deficiency. Aminoguanidine, which is known its vitamin B6 capturing effect was used as control. Each group involves 10 rats. 13 mg/kg/rat/once of TM-2002 or aminoguanidine suspended in carboxymethyl cellulose (0.5%) was respectively administered coercively using sonde twice a daily. Administration term was 20 weeks. The conventional diet (CRF1: Oriental yeast) was used.
# After 20 weeks, the appearance of WKY rat was observed.
# pentosidine = assay: Pentosidine production inhibiting effect with BSA and arabinose; type: biochemical; conditions: BSA and arabinose instead of plasma
# Procedure: Fresh heparinized plasma samples were obtained after informed consent from hemodialysis patients prior to the dialysis session, and filtrated and sterilized. To the plasma (450 μL), there was added the solution of TM-2002 in dimethylsurphoxide (50 μL) (final concentration: 0.8, 2.0, 5.0 mM) incubated at 37° C. for one week. Then, the amount of pentosidine was measured.
# Measurement of the amount of pentosidine was made as follows: to each incubated sample (50 μL) was added an equal volume of 10% trichloroacetic acid, followed by centrifugation at 5000 g for 5 minutes; after removal of the supernatant, the pellet was washed by 5% trichloroacetic acid (300 μL); the pellet was dried under reduced pressure and then subjected to hydrolysis in 6N HCl solution (100 μL) at 110° C. under nitrogen atmosphere for 16 hours; to the hydrolysate, 5N NaOH (100 μL) and 0.5 M phosphate buffer (pH 7.4) (200 μL) were added, followed by filtration through a porefilter with a pore size of 0.5 μm and dilution with PBS. The concentration of free pentosidine was determined by reversed-phase HPLC using a fluorescence detector (Miyata, T. et al.: Proc. Natl. Acad. Sci. USA, Vol. 93, p. 2353-2358, 1996). The effluent was monitored at 335/385 nm of excitation/emission wavelength. Synthetic pentosidine was used as the standard. The detection limit of pentosidine was 0.1 pmol/mg protein.
# The plasma from patients was substituted to BSA and arabinose, and the pentosidine production inhibiting effect of another compounds (I) or (II) was measured in the same manner as [Test Examination 1]. Therein, “-” means that the examination was not carried out.
# ORP150 = assay: ER stress inducing molecule expression in RIN-5F cells, western blot, ORP150; type: cell-based, rat; conditions: tunicamycin added, 8 hours
# Procedure: (§1) Rat pancreatic β cell line (RIN-5F) was seeded in 6 well culture plate to 1.0×10^5 cells/well, and after 24 hours, TM-2002 in DMSO (200 mM, 50 mM) were added to be final concentration 200 μM, 50 μM. After another 1 hour, 0.2 μl of tunicamycin (Sigma) in methanol(1 mg/ml) was added. After culturing 8 hours, the cells were washed 2 ml of PBS(+) twice, and the cells were dissolved in 100 μl of lysate (50 mM Tris-HCl (pH 7.5), 150 mM NaCl, 100 mM NaF, 100 mM sodium phosphate (pH 7.4), 2 mM Na3VO4, 0.1% protease inhibitor cocktail (Sigma), 1% Triton X-100). To remove the insoluble fraction of this lysate, centrifuged at 12,000×g for 10 minutes and obtained the supernatant to give cell extract. The extract was quantified its protein concentration using DC protein assay kit (Bio Rad), and each samples (1 μg) was electrophoresed by SDS-PAGE and transferred to PVDF membrane. The membrane was blocked with 5% skimmed milk/0.1% Tween20-TBS for 1 hour at room temperature, and reacted with anti-ORP150 antibody in 5% skimmed milk/0.1% Tween20-TBS (2000 folds: specific antibody), anti-GRP78 antibody (Santa Cruz) in 5% skimmed milk/0.1% Tween20-TBS (100 folds) and anti-actin antibody (Sigma) in 5% skimmed milk/0.1% Tween20-TBS (200 folds) for 2 hours. […] The detected signal was analyzed by Lane analyzer (ATTO) and calculated the signal strength. […]
# GRP78 = assay: ER stress inducing molecule expression in RIN-5F cells, western blot, GRP78; type: cell-based, rat; conditions: tunicamycin added, 8 hours
# Procedure: as §1
compound,measurement,setting,value
"CC1=NN(c2ccccc2)C(=O)C1 [Edaravone, 3-methyl-1-phenyl-2-pyrazolin-5-one, reference compound]",cerebral infarction nest,"[1]; 2 hours occlusion, 21 hours reperfusion, edaravone 3.0 mg/kg, TM-2002 5.58 mg/kg, twice (5 minutes and 5 hours after occlusion), vs excipient",significantly reduced
same,"Nervous condition estimation test, Ave (grading system of Bederson et al.)",[1]; after occlusion 10 min,2.8
same,"Nervous condition estimation test, Ave (grading system of Bederson et al.)",[1]; after occlusion 2 hrs,2.7
same,"Nervous condition estimation test, Ave (grading system of Bederson et al.)",[1]; after reperfusion 10 min,2.2
same,"Nervous condition estimation test, Ave (grading system of Bederson et al.)",[1]; after reperfusion 3 hrs,2.1
same,"Nervous condition estimation test, Ave (grading system of Bederson et al.)",[1]; after reperfusion 4 hrs,2.0
same,"Nervous condition estimation test, Ave (grading system of Bederson et al.)",[1]; after reperfusion 22 hrs,1.5
same,"rotor rod test, Ave (reading value of count from rotor rod machine)",[1]; before occlusion,197.0
same,improvement for nervous condition and recovering the function,[1]; compared to excipient single administration,remarkably shown
same,"rotor rod test, Ave (reading value of count from rotor rod machine)",[1]; reperfusion,153.1
same,"rotor rod test, ratio to before occlusion (%), Ave",[1],160.4%
"Cc1ncc2c(c1O)C(c1c(C)nn(-c3ccccc3)c1O)OC2 (centres unmarked) [TM-3001, 1-(5-hydroxy-3-methyl-1-phenyl-1H-pyrazol-4-yl)-6-methyl-1,3-dihydro-furo[3,4-c]pyridin-7-ol]","Nervous condition estimation test, Ave (grading system of Bederson et al.)",[1]; after occlusion 10 min,2.8
same,"Nervous condition estimation test, Ave (grading system of Bederson et al.)",[1]; after occlusion 2 hrs,2.6
same,"Nervous condition estimation test, Ave (grading system of Bederson et al.)",[1]; after reperfusion 10 min,1.5
same,"Nervous condition estimation test, Ave (grading system of Bederson et al.)",[1]; after reperfusion 3 hrs,1.3
same,"Nervous condition estimation test, Ave (grading system of Bederson et al.)",[1]; after reperfusion 4 hrs,2.0
same,"Nervous condition estimation test, Ave (grading system of Bederson et al.)",[1]; after reperfusion 22 hrs,2.0
same,"rotor rod test, Ave (reading value of count from rotor rod machine)",[1]; before occlusion,183.4
same,"rotor rod test, Ave (reading value of count from rotor rod machine)",[1]; reperfusion,160.6
same,"rotor rod test, ratio to before occlusion (%), Ave",[1],78.1%
N=C(N)NN [aminoguanidine],condition caused by vitamin B6 deficiency (appearance),normal rat (WKY rat),"skin inflammation, epilepsy and convulsion caused by cerebral disorder were observed"
"CC1=NN(c2ccccc2)C(=O)/C1=C/c1ccc(OCc2ccccc2)cc1 [compound 72, 4-(4-benzyloxy-benzylidene)-5-methyl-2-phenyl-2,4-dihydropyrazol-3-one]",Pentosidine production rate in 5 mM of medicament (%),pentosidine,7.63%
"CC1=NN(c2cccc(Cl)c2)C(=O)/C1=N/O [compound 73, 2-(3-chloro-phenyl)-5-methyl-2H-pyrazol-3,4-dione 4-oxym]",Pentosidine production rate in 5 mM of medicament (%),pentosidine,66.42%
"CCOC(=O)C1=NN(c2ccccc2)/C(=C2\C(=O)N(c3ccccc3)N=C2c2ccccc2)S1 [compound 74, 5-(5-oxo-1,3-diphenyl-1,5-dihydro-pyrazol-4-ylidene)-4-phenyl-4,5-dihydro-[1,3,4]thiazole-2-carboxilic acid-ethyl este]",Pentosidine production rate in 5 mM of medicament (%),pentosidine,87.24%
tunicamycin [reference compound],ORP150 expression compared to control sample,ORP150,1.88 folds
same,GRP78 expression compared to control sample,GRP78,1.46 fords

# From US7645882B2, “Inhibitor of protein modification products formation” (priority 2003, dated 2010)
